Counter-ions that a name gives are not always drawn.
Tests used:
[1] = system: RS4;11 leukaemia tumour line; assay: In vitro cytotoxicity, Microculture Tetrazolium Assay (MTT); type: cell-based; details: Homo sapiens; RS4;11 cells, 48 hours exposure
Procedure: The cytotoxicity studies were carried out on the RS4;11 leukaemia tumour line.
The cells are distributed onto microplates and exposed to the test compounds for 48 hours. The cell viability is then quantified by a colorimetric assay, the Microculture Tetrazolium Assay (Cancer Res., 1987, 47, 939-942).

Bcl-2 protein = Bcl-2 protein (histag-Bcl-2, UniProtKB P10415) (Homo sapiens (Human), UniProt P10415); assay: Inhibition of Bcl-2 by the fluorescence polarisation technique; type: binding; details: fluorescence polarisation test; method A, or method B where underlined (underlining not visible); read-out: IC50 (nM) Bcl-2 FP
Description: Inhibition of Bcl-2 by the fluorescence polarisation technique

Bcl-2 protein, sequence (P10415 whole entry): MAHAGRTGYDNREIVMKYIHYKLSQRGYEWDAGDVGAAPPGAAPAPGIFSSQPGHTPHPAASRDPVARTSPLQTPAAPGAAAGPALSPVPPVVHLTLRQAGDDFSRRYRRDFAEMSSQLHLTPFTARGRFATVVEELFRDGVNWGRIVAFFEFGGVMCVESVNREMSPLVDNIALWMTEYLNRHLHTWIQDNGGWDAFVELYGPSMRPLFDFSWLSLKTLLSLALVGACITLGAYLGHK

SMILES | IC50 (Bcl-2 protein) | IC50 [1]
COc1ccc(N(C(=O)c2cn(-c3cc4c(cc3C(=O)N3Cc5ccccc5C[C@H]3CN3CCN(C)CC3)OCO4)c3ccccc23)c2ccc(O)cc2)cc1 [Example 49, N-(4-Hydroxyphenyl)-N-(4-methoxyphenyl)-1-(6-{[(3S)-3-[(4-methylpiperazin-1-yl)methyl]-3,4-dihydroisoquinolin-2(1H)-yl]carbonyl}-1,3-benzodioxol-5-yl)-1H-indole-3-carboxamide] | 13.1 nM | 136 nM
NC[C@@H]1Cc2ccccc2CN1C(=O)c1ccccc1-n1nc(C(=O)N(c2ccccc2)c2ccccc2)c2ccccc21 [Example 122, 1-{2-[(3S)-3-(Aminomethyl)-1,2,3,4-tetrahydroisoquinoline-2-carbonyl]phenyl}-N,N-diphenyl-1H-indazole-3-carboxamide] | 53.3 nM | 2290 nM
Cc1cc(C(=O)N(c2ccc(O)cc2)c2ccc(O)cc2)cn1-c1cc(Br)ccc1C(=O)N1Cc2ccccc2C[C@H]1CN1CCN(C)CC1 [Example 61, 1-(5-Bromo-2-{[(3S)-3-[(4-methylpiperazin-1-yl)methyl]-3,4-dihydroisoquinolin-2(1H)-yl]carbonyl}phenyl)-N,N-bis(4-hydroxyphenyl)-5-methyl-1H-pyrrole-3-carboxamide] | 7.7 nM | 204 nM
CN1CCN(C[C@@H]2Cc3ccccc3CN2C(=O)c2cc3c(cc2-n2cc(C(=O)N(c4ccc(O)cc4)c4cccc(Oc5ccccc5)c4)c4ccccc42)OCO3)CC1 [Example 39, N-(4-Hydroxyphenyl)-1-(6-{[(3S)-3-[(4-methylpiperazin-1-yl)methyl]-3,4-dihydroisoquinolin-2(1H)-yl]carbonyl}-1,3-benzodioxol-5-yl)-N-(3-phenoxyphenyl)-1H-indole-3-carboxamide hydrochloride] | 12.5 nM | 263 nM
CN1CCN(C[C@@H]2Cc3ccccc3CN2C(=O)c2ccccc2-n2cc(C(=O)N(c3ccccc3)c3ccc(O)cc3)c3ccccc32)CC1 [Example 155, N-(4-Hydroxyphenyl)-1-{2-[(3S)-3-[(4-methylpiperazin-1-yl)methyl]-1,2,3,4-tetrahydroisoquinoline-2-carbonyl}phenyl]-N-phenyl-1H-indole-3-carboxamide] | 13.2 nM | 246 nM
CN1CCN(C[C@@H]2Cc3ccccc3CN2C(=O)c2ccc(Cl)cc2-n2cc(C(=O)N(c3ccc(O)cc3)c3ccc4c(ccn4C)c3)c3ccccc32)CC1 [Example 93, 1-(5-Chloro-2-{[(3S)-3-[(4-methylpiperazin-1-yl)methyl]-3,4-dihydroisoquinolin-2(1H)-yl]carbonyl}phenyl)-N-(4-hydroxyphenyl)-N-(1-methyl-1H-indol-5-yl)-1H-indole-3-carboxamide] | 3.3 nM | 75.4 nM
CN1CCN(C[C@@H]2Cc3ccccc3CN2C(=O)c2cc3c(cc2-n2cc(C(=O)N(CCc4ccccc4)c4ccc(O)cc4)c4ccccc42)OCO3)CC1 [Example 40, N-(4-Hydroxyphenyl)-1-(6-{[(3S)-3-[(4-methylpiperazin-1-yl)methyl]-3,4-dihydroisoquinolin-2(1H)-yl]carbonyl}-1,3-benzodioxol-5-yl)-N-(2-phenylethyl)-1H-indole-3-carboxamide] | 7.8 nM | 167 nM
Cc1cc(C(=O)N(c2ccccc2)c2ccc(O)cc2)cn1-c1cc(Br)ccc1C(=O)N1Cc2ccccc2C[C@H]1CN1C[C@H]2CCC[C@H]2C1 [Example 38, 1-(5-Bromo-2-{[(3S)-3-[(3aR,6aS)-hexahydrocyclopenta[c]pyrrol-2(1H)-ylmethyl]-3,4-dihydroisoquinolin-2(1H)-yl]carbonyl}phenyl)-N-(4-hydroxyphenyl)-5-methyl-N-phenyl-1H-pyrrole-3-carboxamide] | 238 nM | 1780 nM
Cc1cc(C(=O)N(c2ccc(O)cc2)c2ccc3c(ccn3C)c2)cn1-c1cc2c(cc1C(=O)N1Cc3ccccc3C[C@H]1CN1CCOCC1)OCO2 [Example 109, N-(4-Hydroxyphenyl)-5-methyl-N-(1-methyl-1H-indol-5-yl)-1-(6-{[(3S)-3-(morpholin-4-ylmethyl)-3,4-dihydroisoquinolin-2(1H)-yl]carbonyl}-1,3-benzodioxol-5-yl)-1H-pyrrole-3-carboxamide hydrochloride] | 4.4 nM | 116 nM

Continued by falling IC50 (Bcl-2 protein), values first:

IC50 (Bcl-2 protein) | SMILES | IC50 [1]
286 nM | NC[C@@H]1Cc2ccccc2CN1C(=O)c1cc2c(cc1-n1cc(C(=O)N(c3ccccc3)c3ccc(O)cc3)c3ccccc31)OCO2 [Example 153, 1-{6-[(3S)-3-(Aminomethyl)-1,2,3,4-tetrahydroisoquinoline-2-carbonyl]-2H-1,3-benzodioxol-5-yl}-N-(4-hydroxyphenyl)-N-phenyl-1H-indole-3-carboxamide] | 237 nM
155 nM | CCCCN(CCCC)C(=O)c1cn(-c2ccc(NC(=O)COc3ccccc3)cc2C(=O)N2Cc3ccccc3C[C@H]2CN2CCN(C)CC2)c2ccccc12 [Example 200, N,N-Dibutyl-1-{2-[(3S)-3-[(4-methylpiperazin-1-yl)methyl]-1,2,3,4-tetrahydroisoquinoline-2-carbonyl]-4-(2-phenoxyacetamido)phenyl}-1H-indole-3-carboxamide] | 2080 nM
111 nM | CN1CCN(C[C@@H]2Cc3ccccc3CN2C(=O)c2cc3c(cc2-n2cc(C(=O)N(c4ccccc4)c4ccc(O)cc4)c4ccccc42)OC(F)(F)O3)CC1 [Example 182, 1-{2,2-Difluoro-6-[(3S)-3-[(4-methylpiperazin-1-yl)methyl]-1,2,3,4-tetrahydroisoquinoline-2-carbonyl]-2H-1,3-benzodioxol-5-yl}-N-(4-hydroxyphenyl)-N-phenyl-1H-indole-3-carboxamide] | 1850 nM
83.8 nM | CN1CCN(C[C@@H]2Cc3ccccc3CN2C(=O)c2cc3c(cc2-n2cc(C(=O)N(c4ccc(O)c(Cl)c4)c4ccc5c(ccn5C)c4)c4ccccc42)OCO3)CC1 [Example 81, N-(3-Chloro-4-hydroxyphenyl)-N-(1-methyl-1H-indol-5-yl)-1-(6-{[(3S)-3-[(4-methylpiperazin-1-yl)methyl]-3,4-dihydroisoquinolin-2(1H)-yl]carbonyl}-1,3-benzodioxol-5-yl)-1H-indole-3-carboxamide hydrochloride] | 652 nM
50.5 nM | Cc1cc(C(=O)N(c2ccccc2)c2ccccc2)cn1-c1cc(O)ccc1C(=O)N1Cc2ccccc2C[C@H]1CN [Example 6, 1-(2-{[(3S)-3-(Aminomethyl)-3,4-dihydroisoquinolin-2(1H)-yl]-carbonyl}-5-hydroxyphenyl)-5-methyl-N,N-diphenyl-1H-pyrrole-3-carboxamide] | 915 nM
31.1 nM | CN1CCN(C[C@@H]2Cc3ccccc3CN2C(=O)c2cc3c(cc2-n2cc(C(=O)N(c4ccccc4)c4ccc(O)cc4)c4cc(F)ccc42)OCO3)CC1 [Example 195, 5-Fluoro-N-(4-hydroxyphenyl)-1-{6-[(3S)-3-[(4-methylpiperazin-1-yl)methyl]-1,2,3,4-tetrahydroisoquinoline-2-carbonyl]-2H-1,3-benzodioxol-5-yl}-N-phenyl-1H-indole-3-carboxamide] | 507 nM
22.5 nM | COc1ccc(C(=O)N2Cc3ccccc3C[C@H]2CN)c(-n2cc(C(=O)N(c3ccccc3)c3ccccc3)c3ccccc32)c1 [Example 147, 1-{2-[(3S)-3-(Aminomethyl)-1,2,3,4-tetrahydroisoquinoline-2-carbonyl]-5-methoxyphenyl}-N,N-diphenyl-1H-indole-3-carboxamide] | 966 nM
20 nM | CN1CCN(C[C@@H]2Cc3ccccc3CN2C(=O)c2ccc(Br)cc2-n2cc(C(=O)N(c3ccc(O)cc3)c3ccc(O)cc3)c3ccccc32)CC1 [Example 54, 1-(5-Bromo-2-{[(3S)-3-[(4-methylpiperazin-1-yl)methyl]-3,4-dihydroisoquinolin-2(1H)-yl]carbonyl}phenyl)-N,N-bis(4-hydroxyphenyl)-1H-indole-3-carboxamide] | 103 nM
8.4 nM | Cc1cc(C(=O)N(c2ccc(O)cc2)c2ccc3[nH]ccc3c2)cn1-c1cc(Br)ccc1C(=O)N1Cc2ccccc2C[C@H]1CN1CCN(C)CC1 [Example 46, 1-(5-Bromo-2-{[(3S)-3-[(4-methylpiperazin-1-yl)methyl]-3,4-dihydroisoquinolin-2(1H)-yl]carbonyl}phenyl)-N-(4-hydroxyphenyl)-N-(1H-indol-5-yl)-5-methyl-1H-pyrrole-3-carboxamide] | 93.4 nM
7.4 nM | Cc1cc(C(=O)N(c2ccc(O)cc2)c2ccc(F)cc2)cn1-c1cc(Br)ccc1C(=O)N1Cc2ccccc2C[C@H]1CN1CCN(C)CC1 [Example 50, 1-(5-Bromo-2-{[(3S)-3-[(4-methylpiperazin-1-yl)methyl]-3,4-dihydroisoquinolin-2(1H)-yl]carbonyl}phenyl)-N-(4-fluorophenyl)-N-(4-hydroxyphenyl)-5-methyl-1H-pyrrole-3-carboxamide] | 301 nM
6.9 nM | COc1cc(-n2cc(C(=O)N(c3ccccc3)c3ccccc3)c3ccccc32)c(C(=O)N2Cc3ccccc3C[C@H]2CN2CCN(C)CC2)cc1O [Example 181, 1-{4-Hydroxy-5-methoxy-2-[(3S)-3-[(4-methylpiperazin-1-yl)methyl]-1,2,3,4-tetrahydroisoquinoline-2-carbonyl]phenyl}-N,N-diphenyl-1H-indole-3-carboxamide dihydrochloride] | 205 nM
4.2 nM | Cc1cc(C(=O)N(c2ccc(O)cc2)c2ccc3c(ccn3C)c2)cn1-c1cc(Cl)ccc1C(=O)N1Cc2ccccc2C[C@H]1CN1CCN(C)CC1 [Example 89, 1-(5-Chloro-2-{[(3S)-3-[(4-methylpiperazin-1-yl)methyl]-3,4-dihydroisoquinolin-2(1H)-yl]carbonyl}phenyl)-N-(4-hydroxyphenyl)-5-methyl-N-(1-methyl-1H-indol-5-yl)-1H-pyrrole-3-carboxamide] | 59.8 nM

Reference: US9765056B2, “Indole and pyrrole compounds, a process for their preparation and pharmaceutical compositions containing them” (LES LABORATOIRES SERVIER, priority 2013, dated 2017)
